# Results: PMC12442245, “Activity Analysis of the P2X Receptor Antagonist PPADS against Signal Transducer and Activator of Transcription Proteins” (Chembiochem, 2025)
# “And” between values parts separate entries of the source, which are not always exact repeats. Identical values can stand only once.
# Tests used:
# Type in all cases: binding
# [1] = molecular target: T1, STAT4 (Homo sapiens, UniProt Q14765); assay: CETSA, STAT4 in total cell lysates from NK-92 cells; conditions: NK-92 cell lysates, 100 μM compound
# T1 sequence (Q14765 1-748): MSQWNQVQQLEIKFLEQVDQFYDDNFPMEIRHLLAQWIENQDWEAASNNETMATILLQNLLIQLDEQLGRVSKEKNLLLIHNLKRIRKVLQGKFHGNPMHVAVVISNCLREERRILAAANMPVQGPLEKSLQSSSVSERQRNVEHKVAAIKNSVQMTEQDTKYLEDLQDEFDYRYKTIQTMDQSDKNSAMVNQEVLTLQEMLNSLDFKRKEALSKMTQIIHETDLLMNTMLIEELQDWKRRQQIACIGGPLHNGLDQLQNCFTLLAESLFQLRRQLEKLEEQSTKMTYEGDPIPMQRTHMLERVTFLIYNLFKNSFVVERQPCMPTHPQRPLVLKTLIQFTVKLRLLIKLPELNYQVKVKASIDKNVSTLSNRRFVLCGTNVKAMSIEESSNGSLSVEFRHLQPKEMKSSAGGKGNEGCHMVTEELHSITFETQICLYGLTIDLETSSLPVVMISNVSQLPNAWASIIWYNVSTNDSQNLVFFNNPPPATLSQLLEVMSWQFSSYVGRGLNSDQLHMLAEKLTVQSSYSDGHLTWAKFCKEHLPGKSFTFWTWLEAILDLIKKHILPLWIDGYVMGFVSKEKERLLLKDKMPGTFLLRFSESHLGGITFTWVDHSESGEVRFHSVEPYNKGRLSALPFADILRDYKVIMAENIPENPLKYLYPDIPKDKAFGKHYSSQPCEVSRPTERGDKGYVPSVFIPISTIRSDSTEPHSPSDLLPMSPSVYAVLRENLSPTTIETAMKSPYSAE
# Experimental: (§1) One method by which binding of small molecules to their expected targets in cell lysates can be inferred is the cellular thermal shift assay (CETSA).^[ [23], [24] ^] This assay is based on the observation that reversible protein binding by a small molecule typically stabilizes the bound protein against thermal denaturation. […]
# NK-92 cells (DSMZ) were cultured in α-MEM containing 12.5% fetal bovine serum, 12.5% horse serum, 2 mM L-glutamine, penicillin/streptomycin antibiotics and 50 U/ml human recombinant IL-2 (all reagents from Gibco at Thermo Fisher). […]
# whole-cell lysates, cells were harvested by centrifugation, washed once with ice-cold PBS and resuspended at 3 x 10^6 cells per 100 µl in TBS supplemented with EDTA-free Halt Protease Inhibitor Cocktail (Fisher Scientific). […]
# (§2) CETSA experiments were performed based on the published protocol.[8] […] The soluble fractions were analyzed by Western blotting.
# (§3) Treated lysates were separated by SDS-PAGE on a 10% gel and transferred to nitrocellulose membrane using a TransBlot semi-dry blotting protocol (Bio-Rad Laboratories). Proteins of interest were detected using monoclonal rabbit primary antibodies (Cell Signaling), anti-rabbit-HRP-secondary antibody (Dako) and Pierce ECL Plus chemiluminescence reagent (Thermo Fisher). Bands were visualized using an ImageQuant system (GE Healthcare) and quantitated with ImageJ software (NIH).[9]
# [2] = system: total STAT5 (STAT5a and STAT5b); assay: CETSA, total STAT5 in lysates from K562 cells; conditions: K562 cell lysates, 100 μM
# Experimental: as §1
# K562 cells (DSMZ) were cultured […]
# in RPMI 1640 medium containing 10% FBS, 2 mM L-glutamine and penicillin/streptomycin. For whole-cell lysates, cells were harvested by centrifugation, washed once with ice-cold PBS and resuspended at 3 x 10^6 cells per 100 µl in TBS supplemented with EDTA-free Halt Protease Inhibitor Cocktail (Fisher Scientific). Cells were lysed using three freeze-thaw cycles using liquid nitrogen and a room-temperature water bath. […]
# as §2, §3
# [3] = molecular target: STAT3 (Homo sapiens, UniProt P40763); assay: CETSA, STAT3 in total cell lysates from NK-92 cells; set-up: the endogenous full‐length proteins (between 748 and 793 amino acids for STAT3/4/5a/5b); endogenous in cells; host or cells: NK-92 cells (DSMZ), whole-cell lysate; conditions: NK-92 cell lysates, 100 μM
# Excerpt: STAT3 was again chosen as a specificity control for CETSA analysis, because it had already been used as control in HTRF assays (Figure 2B), and because we had previously developed CETSA for STAT3 in NK‐92 lysates.^[ [11] ^] […] The relatively low thermal shifts obtained even with the high‐affinity control peptides are consistent with the fact that the SH2 domain of STATs only comprises a small proportion (≈100 amino acids) of the endogenous full‐length proteins (between 748 and 793 amino acids for STAT3/4/5a/5b).^[ [25] ^] […] The CETSA experiments were carried out in cell lysates, not in living cells, to account for the putative inability of PPADS and iso‐PPADS to cross the cell membrane owing to their large number of negative charges. […]
# as §2, §3
# Chain of STAT3 (P40763 whole entry, species assumed, the tested form may be a part): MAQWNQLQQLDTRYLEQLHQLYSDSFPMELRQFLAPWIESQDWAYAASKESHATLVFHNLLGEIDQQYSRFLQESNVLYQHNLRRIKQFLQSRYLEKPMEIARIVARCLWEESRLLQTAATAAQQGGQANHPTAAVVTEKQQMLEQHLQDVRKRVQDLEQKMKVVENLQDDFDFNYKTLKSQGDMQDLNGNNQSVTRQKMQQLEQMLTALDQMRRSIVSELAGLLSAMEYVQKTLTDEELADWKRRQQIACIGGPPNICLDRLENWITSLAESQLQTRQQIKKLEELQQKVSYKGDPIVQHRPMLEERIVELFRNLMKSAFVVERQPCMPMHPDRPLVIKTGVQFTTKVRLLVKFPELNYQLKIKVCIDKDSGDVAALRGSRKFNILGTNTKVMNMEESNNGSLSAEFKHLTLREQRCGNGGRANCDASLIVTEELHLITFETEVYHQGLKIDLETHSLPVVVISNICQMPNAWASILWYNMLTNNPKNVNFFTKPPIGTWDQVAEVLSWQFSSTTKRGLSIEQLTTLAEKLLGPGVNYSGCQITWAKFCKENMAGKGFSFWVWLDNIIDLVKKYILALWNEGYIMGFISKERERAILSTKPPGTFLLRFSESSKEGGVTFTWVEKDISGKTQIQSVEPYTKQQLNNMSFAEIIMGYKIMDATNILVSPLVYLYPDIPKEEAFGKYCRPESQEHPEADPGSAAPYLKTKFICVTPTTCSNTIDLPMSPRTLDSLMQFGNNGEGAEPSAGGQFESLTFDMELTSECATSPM
structure (smiles),measurement,setting,value
"Cc1nc(/N=N/c2ccc(S(=O)(=O)O)cc2S(=O)(=O)O)c(COP(=O)(O)O)c(C=O)c1O [PPADS, pyridoxalphosphate‐6‐azophenyl‐2',4'‐disulfonic acid]",increase of the aggregation temperature of STAT4 (ΔT agg),[1],1.1 °C
same,aggregation temperature of STAT4 (T agg),[1]; DMSO control 48.9 ± 0.4 °C,50.0 ± 0.4 °C and 50.0 °C
same,ΔT agg of total STAT5,[2],2.7 °C
same,aggregation temperature of total STAT5 (T agg),[2]; DMSO control 49.0 °C,51.7 °C
same,increase of the aggregation temperature of STAT3 (ΔT agg),[3],0.57 °C
same,aggregation temperature of STAT3 (T agg),[3]; DMSO control 51.47 °C,52.04 °C
